The values below come from patent publication US7214659B2, “Reduction of the electrocardiographic QT interval” (Creative Peptides Sweden AB, priority 2000, dated 2007).

Series [1] concerns IDDM patients with autonomic neuropathy. In words: QTc interval during 3 h i.v. C-peptide infusion, randomized double-blind study (Example 1). It counts as in vivo, human. As to conditions: during three hours of C-peptide i.v., 6 pico mole per kg per minute; basal QTc 0.429±0.004s; decreased significantly, p<0.05. As for the experimental part:
The QTc interval will vary from patient to patient but can generally be considered prolonged when it exceeds 420 ms in men and 430 ms in women. QTc is the corrected (for heart rate influence) QT interval. It is calculated according to Bazett's formula (QTc=QT/√{square root over (R)}R). QT and RR are conveniently measured using a ruler on an ECG tracing; the QT interval is measured from the beginning of the QRS complex to the end of the crossing of the isoelectric line of the T wave, see the stylised representation in FIG. 1. Any reduction in the interval can be beneficial to the patient, preferably the interval will be reduced by at least 3 ms, more preferably treatment will reduce the QTc interval by at least 5 ms, particularly preferably at least 8 ms even at least 10 ms. […]
Before and during the three hour session a complete 12 lead electrocardiogram was recorded to evaluate heart rate variability during deep breathing. […] The […] (one patient could not take part in a second session and one patient's ECG tracing was not possible to evaluate) were analyzed blindly by two persons. The RR and QT interval were measured with a ruler. […] Five intervals from the precordial leads and five intervals from the extremity leads were measured on each occasion and a mean was calculated. […]

Series [2] can be described thus: Plasma C-peptide and blood glucose levels during 3 h i.v. C-peptide infusion (Example 1). The class given is in vivo. As to conditions: both sexes, human, iv, during the C-peptide infusion, 6 pico mole per kg per minute i.v. for 180 minutes, 0.11±0.02 nmol/l before the study. From the text: In this study 12 IDDM patients (six male and six female) with autonomic neuropathy participated in two different sessions in a randomized, double-blind study (one patient attended one time only). Their mean age was 40 and mean duration of diabetes was 21 years. In eight patients the fasting plasma C-peptide levels were below the detection limit (<0.10 nmol/l), the remaining four varied between 0.13 and 0.25 nmol/l. Eleven patients had decreased heart rate variability during deep breathing as evidence of autonomic neuropathy. On each occasion they received insulin i.v. for 9–12 hours before the study and blood glucose levels were tested every 1–2 hours during the night. The insulin infusion was adjusted to achieve euglycaemia (5–6 mmol/l). The patients were then given either saline or C-peptide i.v. for 180 minutes. 6 pico mole per kg per minute was administered.

Series [3] relates to IDDM patients. Description: QTc interval after 3 months of s.c. C-peptide, randomised cross over study (Example 2). The class given is in vivo, human. As to conditions: 6 patients with prolonged QTc interval at the outset (>420 ms), 600 nmol per 24 h s.c. in 3 doses. As for the experimental part: In a further study (different results from which were published in Diabetic Medicine, Vol. 17 (2000) p. 181–189, Johannson, Bo-Lennart et al.) 21 IDDM patients were monitored for 6 months according to a randomised cross over regimen wherein C-peptide was administered for 3 months and a placebo.
Further details of the study can be found in the above referenced paper in Diabetic Medicine but in summary, biosynthetic human C-peptide (Eli Lilly Co.) or a placebo comprising just the C-peptide solvent was injected sub-cutaneously 3 times per day. The total 24 h dose of C-peptide was 600 nmol (225 nmol 30 mins before breakfast, 150 nmol before dinner and 225 nmol at bedtime).
ECGs were recorded at the start of the programme and after 3 and then 6 months of the study. These recordings were then used to measure the QTc interval as described in Example 1.

Series [4] has as its system patients with IDDM. In words: QTc interval during 3 h C-peptide infusion, randomised double blind study (Example 3). It counts as in vivo, human. The following applies: infused for 3 hours; NaCl placebo; FIG. 4. As for the experimental part: Twelve patients were investigated twice in a randomised double blind study where C-peptide or a NaCl placebo were infused for 3 hours. The same procedure as described in Example 1 was followed.

As for `CC(C)C[C@H](NC(=O)[C@H](C)NC(=O)[C@H](CC(C)C)NC(=O)[C@@H]1CCCN1C(=O)[C@H](CCC(N)=O)NC(=O)[C@H](CC(C)C)NC(=O)[C@H](CO)NC(=O)CNC(=O)[C@H](C)NC(=O)CNC(=O)[C@@H]1CCCN1C(=O)CNC(=O)CNC(=O)CNC(=O)[C@H](CC(C)C)NC(=O)[C@H](CCC(=O)O)NC(=O)[C@@H](NC(=O)[C@H](CCC(N)=O)NC(=O)CNC(=O)[C@@H](NC(=O)[C@H](CCC(N)=O)NC(=O)[C@H](CC(C)C)NC(=O)[C@H](CC(=O)O)NC(=O)[C@H](CCC(=O)O)NC(=O)[C@H](C)NC(=O)[C@@H](N)CCC(=O)O)C(C)C)C(C)C)C(=O)N[C@@H](CCC(=O)O)C(=O)NCC(=O)N[C@@H](CO)C(=O)N[C@@H](CC(C)C)C(=O)N[C@@H](CCC(N)=O)C(=O)O` [C-peptide], the “mean QTc interval” value in series [1] came to 0.422 ± 0.006 s. The same compound displayed a level at time molar in series [2] of 1.73 ± 0.04 nM. Moreover, the “QTc interval, C-peptide phase compared to placebo phase” value in series [3] is given as “clear shortening of the QTc interval”. The “QTc interval during C-peptide treatment compared to placebo” value in series [4] is listed as “decrease in QTc interval”.
